Converted amounts (≈) assume the structure as drawn.
Key:
[1] = system: Enterococcus; test: Inhibitory activity against enterococcus evaluated by computational method; format: functional
[2] = system: Bacteria; test: The gram-negative activity is derived from eleven strains selected from seven enteric genera; format: functional
[3] = molecular target: T1, MecA (Staphylococcus aureus, UniProt Q7DHH4); test: Binding affinity towards Penicillin-binding protein 2a from homogeneous MRSA COL strain using [3H]-radioligand
T1 sequence (Q7DHH4 whole entry): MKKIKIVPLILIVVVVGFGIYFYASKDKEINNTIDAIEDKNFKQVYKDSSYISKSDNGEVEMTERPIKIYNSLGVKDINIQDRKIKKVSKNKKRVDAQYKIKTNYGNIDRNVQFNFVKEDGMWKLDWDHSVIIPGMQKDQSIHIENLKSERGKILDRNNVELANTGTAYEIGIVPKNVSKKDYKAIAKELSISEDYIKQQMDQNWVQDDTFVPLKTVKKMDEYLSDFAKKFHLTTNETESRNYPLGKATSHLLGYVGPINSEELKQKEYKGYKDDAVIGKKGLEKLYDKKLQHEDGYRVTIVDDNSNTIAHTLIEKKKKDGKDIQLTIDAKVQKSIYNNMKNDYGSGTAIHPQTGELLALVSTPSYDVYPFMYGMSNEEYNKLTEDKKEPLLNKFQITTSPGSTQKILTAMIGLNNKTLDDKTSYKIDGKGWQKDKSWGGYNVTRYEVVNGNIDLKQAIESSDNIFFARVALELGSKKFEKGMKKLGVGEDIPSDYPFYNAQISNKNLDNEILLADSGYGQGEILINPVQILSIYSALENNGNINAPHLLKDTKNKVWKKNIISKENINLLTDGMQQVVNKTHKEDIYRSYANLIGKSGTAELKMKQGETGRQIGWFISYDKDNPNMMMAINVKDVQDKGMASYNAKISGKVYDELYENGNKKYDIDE

[4] = system: Staphylococcus aureus; test: Inhibitory activity against methicillin-sensitive staphylococcus aureus(MSSA); format: functional
[5] = system: Staphylococcus aureus; test: Inhibitory activity against methicillin-resistant staphylococcus aureus(MRSA); format: functional
[6] = molecular target: T2, Dipeptidase 1 (Sus scrofa) (UniProt P22412); test: (§1) Susceptibility to DHP-I (swine kidney enzyme); format: tissue-based
T2 sequence (whole entry): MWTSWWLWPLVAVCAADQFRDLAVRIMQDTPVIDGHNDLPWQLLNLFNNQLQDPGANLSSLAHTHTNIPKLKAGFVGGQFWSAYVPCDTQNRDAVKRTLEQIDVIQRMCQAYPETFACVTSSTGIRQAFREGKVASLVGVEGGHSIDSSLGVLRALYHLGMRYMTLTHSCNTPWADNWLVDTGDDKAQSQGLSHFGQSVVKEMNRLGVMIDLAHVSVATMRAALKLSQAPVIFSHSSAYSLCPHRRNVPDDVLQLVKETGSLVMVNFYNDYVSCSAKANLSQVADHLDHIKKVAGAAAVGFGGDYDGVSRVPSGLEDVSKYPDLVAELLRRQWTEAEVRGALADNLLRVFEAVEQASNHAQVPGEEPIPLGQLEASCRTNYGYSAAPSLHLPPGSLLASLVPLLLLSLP

[7] = organism: Sus scrofa; test: as §1; format: tissue-based
[8] = system: Enterococcus; test: Inhibitory activity against enterococcus evaluated manually; format: functional
[9] = system: Staphylococcus; test: Inhibitory activity against methicillin-resistant coagulase negative staphylococci (MRCNS)evaluated by computational method; format: functional
[10] = system: Staphylococcus; test: Inhibitory activity against methicillin-resistant coagulase negative staphylococci (MRCNS)evaluated manually; format: functional
[11] = system: Staphylococcus aureus; test: Inhibitory activity against methicillin-resistant staphylococcus aureus(MRSA)evaluated manually; format: functional
[12] = system: Staphylococcus aureus; test: Inhibitory activity against methicillin-sensitive staphylococcus aureus(MSSA) evaluated by computational method; format: functional
[13] = system: Staphylococcus aureus; test: Inhibitory activity against methicillin-sensitive staphylococcus aureus(MSSA) evaluated manually; format: functional
[14] = system: Staphylococcus aureus; test: Inhibitory activity against methicillin-resistant staphylococcus aureus(MRSA)evaluated by computational method; format: functional

C[C@@H](O)[C@H]1C(=O)N2C(C(=O)[O-])=C(Sc3nc4ccc(N)cc4s3)[C@H](C)[C@H]12.[Na+]
MIC [1]: 5.9 µg/mL | MIC ([2]; Bacteria, read-out: MIC): 18.3 µg/mL | IC50 [3]: 40.6 µM | MIC [4]: 0.09 µg/mL | MIC [5]: 9 µg/mL

CCOc1ccc2nc(SC3=C(C(=O)[O-])N4C(=O)[C@H]([C@@H](C)O)[C@H]4[C@H]3C)sc2c1.[Na+]
Susceptibility [6]: 0.3 | MIC [1]: 6 µg/mL | MIC ([2]; Bacteria, read-out: MIC): 31.6 µg/mL | IC50 [3]: 10.6 µM | MIC [4]: 0.1 µg/mL | MIC [5]: 4 µg/mL

C[C@@H](O)[C@H]1C(=O)N2C(C(=O)[O-])=C(Sc3nc4c(CO)csc4s3)[C@H](C)[C@H]12.[Na+]
Susceptibility [6]: 0.5 | MIC [1]: 4 µg/mL | MIC ([2]; Bacteria, read-out: MIC): 9.7 µg/mL | IC50 [3]: 2.76 µM | MIC [4]: 0.02 µg/mL | MIC [5]: 2 µg/mL

C[C@@H](O)[C@H]1C(=O)N2C(C(=O)[O-])=C(Sc3nc(-c4ccccc4)cs3)[C@H](C)[C@H]12.[Na+]
Susceptibility [6]: 0.4 | MIC [1]: 2.6 µg/mL | MIC ([2]; Bacteria, read-out: MIC): 6.6 µg/mL | IC50 [3]: 23.8 µM | MIC [4]: 0.05 µg/mL | MIC [5]: 1.9 µg/mL

COC(=O)c1csc2sc(SC3=C(C(=O)[O-])N4C(=O)[C@H]([C@@H](C)O)[C@H]4[C@H]3C)nc12.[Na+]
Susceptibility [6]: 0.3 | MIC [1]: 4 µg/mL | MIC ([2]; Bacteria, read-out: MIC): 21.9 µg/mL | IC50 [3]: 2.59 µM | MIC [4]: 0.04 µg/mL | MIC [5]: 2 µg/mL

C[C@@H](O)[C@H]1C(=O)N2C(C(=O)[O-])=C(Sc3nc4cc(Cl)ccc4s3)[C@H](C)[C@H]12.[Na+]
Susceptibility [6]: 0.2 | MIC [1]: 2.7 µg/mL | MIC ([2]; Bacteria, read-out: MIC): 4.8 µg/mL | IC50 [3]: 6.24 µM | MIC [4]: 0.02 µg/mL | MIC [5]: 0.8 µg/mL

COC(=O)c1cc2sc(SC3=C(C(=O)[O-])N4C(=O)[C@H]([C@@H](C)O)[C@H]4[C@H]3C)nc2o1.[Na+]
MIC [1]: 4 µg/mL | MIC ([2]; Bacteria, read-out: MIC): 12.4 µg/mL | IC50 [3]: 3.36 µM | MIC [4]: 0.02 µg/mL | MIC [5]: 4 µg/mL

C[C@@H](O)[C@H]1C(=O)N2C(C(=O)[O-])=C(Sc3ncc4ccccc4n3)[C@H](C)[C@H]12.[Na+]
Susceptibility [6]: 0.3 | MIC [1]: 8 µg/mL | MIC ([2]; Bacteria, read-out: MIC): 15 µg/mL | IC50 [3]: 30.2 µM | MIC [4]: 0.02 µg/mL | MIC [5]: 4 µg/mL

C[C@@H](O)[C@H]1C(=O)N2C(C(=O)O)=C(SCCN=CN)C[C@H]12 [IMIPENEM ANHYDROUS]
IC50 [3]: 428 µM

C[C@@H](O)[C@H]1C(=O)N2C(C(=O)[O-])=C(Sc3cc4ccccc4s3)[C@H](C)[C@H]12.[Na+]
Susceptibility [6]: 0.4 | MIC [1]: 5.7 µg/mL | MIC ([2]; Bacteria, read-out: MIC): 9.8 µg/mL | IC50 [3]: 41.5 µM | MIC [4]: 0.04 µg/mL | MIC [5]: 3.9 µg/mL

C[C@@H](O)[C@H]1C(=O)N2C(C(=O)[O-])=C(Sc3nc4c(C[n+]5ccn(C)c5)csc4s3)C[C@H]12
Susceptibility [7]: 0.2 | MIC [1]: 2 µg/mL (≈ 4.32 µM) | MIC ([2]; Bacteria, read-out: MIC): 5.5 µg/mL (≈ 11.9 µM) | IC50 [3]: 0.649 µM | MIC [4]: 0.02 µg/mL (≈ 0.0432 µM) | MIC [5]: 1 µg/mL (≈ 2.16 µM)

C[C@@H](O)[C@H]1C(=O)N2C(C(=O)[O-])=C(Sc3nc4ccccc4s3)[C@H](C)[C@H]12.[Na+]
Susceptibility [6]: 0.2 | MIC [1]: 2.1 µg/mL | MIC [8]: 4 µg/mL | MIC [2]: 9.7 µg/mL | MIC ([2]; Bacteria, read-out: MIC): 5.6 µg/mL | IC50 [3]: 5.02 µM | MIC [9]: 1.6 µg/mL | MIC [10]: 4 µg/mL | MIC [11]: 1 µg/mL | MIC [12]: 0.06 µg/mL | MIC [13]: 0.02 µg/mL | MIC [14]: 1.7 µg/mL

C[C@@H](O)[C@H]1C(=O)N2C(C(=O)[O-])=C(Sc3nc4cc(C(F)(F)F)ccc4s3)[C@H](C)[C@H]12.[Na+]
MIC [1]: 2.9 µg/mL | MIC ([2]; Bacteria, read-out: MIC): 9.9 µg/mL | IC50 [3]: 1.93 µM | MIC [4]: 0.08 µg/mL | MIC [5]: 1.2 µg/mL

Reference: ChEMBL document CHEMBL1128761, “Benzothiazolylthio carbapenems: potent anti-MRSA agents” (Bioorg Med Chem Lett, 1995)
